Test results reported in ChEMBL document CHEMBL1201862, “PubChem BioAssay data set” (2004).
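Cells were grown in 96-well plates and exposed to each compound for 48 hours at five concentrations; endpoints were interpolated linearly between bracketing concentrations, or set to the highest concentration if not reached. Abbreviation: GI50, concentration required for 50% inhibition of growth.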 Calls of active or inactive are those of the source. Rule as the data show it: active = GI50 up to about 1.1 µM and inactive = higher.

Key:
Assay in all cases: NCI tumour cell line growth inhibition, 48 h
[1] = tested on: IGROV-1
[2] = tested on: SK-OV-3
[3] = tested on: SW-620
[4] = tested on: CAKI-1
[5] = tested on: UO-31
[6] = tested on: OVCAR-8
[7] = tested on: SK-MEL-28
[8] = tested on: A549
[9] = tested on: HCT-15
[10] = tested on: MOLT-4
[11] = tested on: 786-0
[12] = tested on: HCT-116
[13] = tested on: ACHN
[14] = tested on: TK-10
[15] = tested on: OVCAR-4
[16] = tested on: CCRF-CEM
[17] = tested on: SR
[18] = tested on: LOX IMVI

Row | SMILES | GI50 [1] | GI50 [2] | GI50 [3] | GI50 [4] | GI50 [5] | GI50 [6] | GI50 [7] | GI50 [8] | GI50 [9] [µM] | GI50 [10] | GI50 [11] | GI50 [12] | GI50 [13] | GI50 [14] | GI50 [15] | GI50 [16] | GI50 [17] | GI50 [18]
1 | N=c1oc2c(O)c(O)ccc2cc1C(N)=O | > 100 µM (inactive) | > 100 µM (inactive) | 32.1 µM (inactive) | > 100 µM (inactive) | > 100 µM (inactive) | 24.5 µM (inactive) | 85.7 µM (inactive) | > 100 µM (inactive) | > 100 | 34 µM (inactive) | 12 µM (inactive) | 51.1 µM (inactive) | > 100 µM (inactive) | > 100 µM (inactive) | 17.5 µM (inactive) | 21.6 µM (inactive) |  | 
2 | O=C(O)c1ccc(C2SCc3nc4ccccc4n32)cc1 (configuration not stated) | > 100 µM (inactive) |  | > 100 µM (inactive) | > 100 µM (inactive) | > 100 µM (inactive) | > 100 µM (inactive) | > 100 µM (inactive) | > 100 µM (inactive) | > 100 | > 100 µM (inactive) | > 100 µM (inactive) | > 100 µM (inactive) | > 100 µM (inactive) | > 100 µM (inactive) | > 100 µM (inactive) | > 100 µM (inactive) | > 100 µM (inactive) | > 10 µM (inactive)
3 | Cc1ccc(NC(=O)CCc2nnc(N)o2)cc1 | > 100 µM (inactive) | > 100 µM (inactive) | > 100 µM (inactive) | > 100 µM (inactive) | > 100 µM (inactive) | > 100 µM (inactive) | > 100 µM (inactive) | > 100 µM (inactive) | > 100 | > 100 µM (inactive) | > 100 µM (inactive) | > 100 µM (inactive) | > 100 µM (inactive) | > 100 µM (inactive) | > 100 µM (inactive) | > 100 µM (inactive) |  | > 100 µM (inactive)
4 | Cc1ccc(S(=O)(=O)ON/N=C2/C3OC3[C@@H]3CCCC[C@H]23)cc1 (some centres not stated) | > 100 µM (inactive) |  | > 100 µM (inactive) | > 100 µM (inactive) | > 100 µM (inactive) | 0.507 µM (active) | > 100 µM (inactive) | > 100 µM (inactive) | > 100 | > 100 µM (inactive) | > 100 µM (inactive) |  | > 100 µM (inactive) | > 100 µM (inactive) | > 100 µM (inactive) | > 100 µM (inactive) | > 100 µM (inactive) | 
5 | Nc1ccc(C2=Nc3ccccc3SC(c3ccccc3O)C2)cc1 (configuration not stated) | 46.6 µM (inactive) | > 100 µM (inactive) | 33.7 µM (inactive) | 58.9 µM (inactive) | 29.8 µM (inactive) | 42.1 µM (inactive) | 65.8 µM (inactive) | 51.2 µM (inactive) | 27.3 | 19.8 µM (inactive) | 28.8 µM (inactive) |  | 42.2 µM (inactive) | > 100 µM (inactive) | 51.6 µM (inactive) | 12.4 µM (inactive) |  | 30.7 µM (inactive)
6 | Nc1ncnc2c1ncn2C1OC(CSC(F)F)C(O)C1O (configuration not stated) | > 100 µM (inactive) | > 100 µM (inactive) | > 100 µM (inactive) | > 100 µM (inactive) | > 100 µM (inactive) | > 100 µM (inactive) | > 100 µM (inactive) | > 100 µM (inactive) | > 100 | > 100 µM (inactive) | > 100 µM (inactive) | > 100 µM (inactive) | > 100 µM (inactive) | > 100 µM (inactive) | > 100 µM (inactive) | > 100 µM (inactive) |  | > 100 µM (inactive)
7 | CCOC(=O)C1C(=O)C(=O)N2CCc3c([nH]c4ccccc34)C12 (configuration not stated) | > 100 µM (inactive) | > 100 µM (inactive) | > 100 µM (inactive) | > 100 µM (inactive) | > 100 µM (inactive) | > 100 µM (inactive) | > 100 µM (inactive) | > 100 µM (inactive) | > 100 | > 100 µM (inactive) | > 100 µM (inactive) | > 100 µM (inactive) |  | > 100 µM (inactive) | > 100 µM (inactive) | > 100 µM (inactive) | > 100 µM (inactive) | 
8 | O=S1(=O)CS(=O)(=O)OCCCCCO1 | > 100 µM (inactive) | > 100 µM (inactive) | > 100 µM (inactive) | > 100 µM (inactive) | > 100 µM (inactive) | > 100 µM (inactive) | > 100 µM (inactive) | > 100 µM (inactive) | > 100 |  | > 100 µM (inactive) | > 100 µM (inactive) | > 100 µM (inactive) | > 100 µM (inactive) | > 100 µM (inactive) | > 100 µM (inactive) |  | > 100 µM (inactive)
9 | COc1ccc(CNc2cnc3cc(N)ccc3n2)cc1OC |  |  | > 100 µM (inactive) | > 100 µM (inactive) | > 100 µM (inactive) | > 100 µM (inactive) | > 100 µM (inactive) | > 100 µM (inactive) | > 100 | > 100 µM (inactive) | > 100 µM (inactive) | > 100 µM (inactive) | > 100 µM (inactive) | > 100 µM (inactive) | > 100 µM (inactive) | > 100 µM (inactive) | > 100 µM (inactive) | > 100 µM (inactive)
10 | COC(=O)c1ccccc1/C=C1\Cc2cc(C)cc(C)c2C1=O | > 100 µM (inactive) |  | > 100 µM (inactive) |  |  | > 100 µM (inactive) | > 100 µM (inactive) | > 100 µM (inactive) | > 100 | > 100 µM (inactive) | 57.4 µM (inactive) | > 100 µM (inactive) | > 100 µM (inactive) | > 100 µM (inactive) |  | > 100 µM (inactive) | > 100 µM (inactive) | > 100 µM (inactive)
11 | Cc1c(C(=O)c2ccccc2C(=O)O)c2ccccc2n1C | > 100 µM (inactive) | > 100 µM (inactive) | > 100 µM (inactive) | > 100 µM (inactive) | > 100 µM (inactive) | > 100 µM (inactive) | > 100 µM (inactive) | > 100 µM (inactive) | > 100 | > 100 µM (inactive) | > 100 µM (inactive) | > 100 µM (inactive) | > 100 µM (inactive) | > 100 µM (inactive) | > 100 µM (inactive) | > 100 µM (inactive) |  | 
12 | CC(C)(C)C#COC(=O)c1ccccc1 | > 100 µM (inactive) | > 100 µM (inactive) | > 100 µM (inactive) | > 100 µM (inactive) | > 100 µM (inactive) | > 100 µM (inactive) |  | > 100 µM (inactive) | > 100 | > 100 µM (inactive) | > 100 µM (inactive) | > 100 µM (inactive) | > 100 µM (inactive) |  | > 100 µM (inactive) | > 100 µM (inactive) | > 100 µM (inactive) | > 100 µM (inactive)
13 | CCOC(=O)[C@H]1Nc2ccc(Cl)cc2[C@H]2CCC[C@@H]12 | > 100 µM (inactive) |  | > 100 µM (inactive) | 86.9 µM (inactive) | 99.8 µM (inactive) | > 100 µM (inactive) | > 100 µM (inactive) | 88.3 µM (inactive) | > 100 | > 100 µM (inactive) | > 100 µM (inactive) | > 100 µM (inactive) | > 100 µM (inactive) | > 100 µM (inactive) | 56.9 µM (inactive) |  | > 100 µM (inactive) | > 100 µM (inactive)
14 | O=C(c1cc(Cl)ccc1Cl)N1CCN(c2ccc(Cl)c(Cl)c2)CC1 | 39.4 µM (inactive) |  | 49.1 µM (inactive) | 35.8 µM (inactive) | 14.8 µM (inactive) | 12.5 µM (inactive) | 39.6 µM (inactive) | 26.9 µM (inactive) | 13.2 | 20.6 µM (inactive) | 19.7 µM (inactive) | 21 µM (inactive) | 47 µM (inactive) | 31.9 µM (inactive) | 51.5 µM (inactive) | 41.6 µM (inactive) | 34.9 µM (inactive) | 26.4 µM (inactive)
15 | OC1CC(O)O[C@H](c2ccccc2)C1 (some centres not stated) | > 100 µM (inactive) |  | > 100 µM (inactive) | > 100 µM (inactive) | > 100 µM (inactive) | 85.3 µM (inactive) | > 100 µM (inactive) | > 100 µM (inactive) | > 100 | > 100 µM (inactive) | > 100 µM (inactive) | > 100 µM (inactive) | > 100 µM (inactive) | > 100 µM (inactive) | > 100 µM (inactive) | > 100 µM (inactive) | > 100 µM (inactive) | > 100 µM (inactive)
16 | CC(=O)OC1C[C@H]2C(OC(=O)c3ccccc3)C3C4(OC(C)=O)COC4C[C@H](OC(C)=O)[C@@]3(C)C(OC(C)=O)[C@H](OC(C)=O)C(=C1C)C2(C)C (some centres not stated) | 41.8 µM (inactive) | 34.1 µM (inactive) | 57.9 µM (inactive) | 13.5 µM (inactive) | 24.9 µM (inactive) | 41.2 µM (inactive) | > 100 µM (inactive) | 31.2 µM (inactive) | 47 | 20.1 µM (inactive) | 35.9 µM (inactive) | 40 µM (inactive) | 21 µM (inactive) | 25.7 µM (inactive) | 36.7 µM (inactive) | 36.7 µM (inactive) |  | 40.9 µM (inactive)
17 | Cc1c2cc[n+](C)cc2c(C)c2c1[nH]c1ccc(Oc3ccccc3)cc12 | 2.23 µM (inactive) | 1.39 µM (inactive) | 0.843 µM (active) | 1.89 µM (inactive) | 7.29 µM (inactive) | 0.553 µM (active) | 3.28 µM (inactive) | 0.324 µM (active) | 3.05 | 2.21 µM (inactive) | 0.504 µM (active) | 1.54 µM (inactive) | 2.05 µM (inactive) |  | 1.4 µM (inactive) | 1.19 µM (inactive) |  | 2.09 µM (inactive)
18 | c1ccc2nc(-c3ccc4c(c3)OCO4)ccc2c1 |  |  | 77.6 µM (inactive) | 28.8 µM (inactive) | 20 µM (inactive) | 43.5 µM (inactive) | > 100 µM (inactive) | 49.2 µM (inactive) |  |  | 76.7 µM (inactive) |  | 26.5 µM (inactive) | 64 µM (inactive) | 24.8 µM (inactive) |  | 16.7 µM (inactive) | 26.1 µM (inactive)
